Columns and labels:
[1] = Solubility of the compound of Formula I in various materials (HPLC with UV detector); assay type: physicochemical
Protocol: The solubility of the compound of Formula I in various materials is determined.

[2] = Forced degradation studies of the compound of Formula I; assay type: physicochemical
From the text: The formation of the compound of Formula II is slowed and/or eliminated by inclusion of an "antioxidant system," as described herein, in the novel ophthalmic solution compositions described herein.

- solubility ([1]; 0.2% poloxamer in water, aqueous with cosolvent or surfactant or cyclodextrin): 10 µg/mL
- solubility ([1]; 0.5% polyoxyl 40 hydrogenated castor oil in water, aqueous with cosolvent or surfactant or cyclodextrin): 70 µg/mL
- solubility ([1]; 1% polysorbate-80 in water, aqueous with cosolvent or surfactant or cyclodextrin): 100 µg/mL
- solubility ([1]; 1.4% polyvinyl alcohol in water, aqueous with cosolvent or surfactant or cyclodextrin, 1.4% Poly Vinyl Alcohol in water): 10 µg/mL
- solubility ([1]; 5% polyoxyl 35 castor oil in water, aqueous with cosolvent or surfactant or cyclodextrin): 480 µg/mL
- solubility ([1]; 7% polyoxyl 40 stearate in water, aqueous with cosolvent or surfactant or cyclodextrin): 620 µg/mL
- solubility ([1]; castor oil, oil or lipid): 1090 µg/mL
- solubility ([1]; glycerine, organic solvent or mixture): 100 µg/mL
- solubility ([1]; mineral oil, oil or lipid): 40 µg/mL
- solubility ([1]; polyethylene glycol 400 (PEG-400), organic solvent or mixture): 14500 µg/mL
- solubility ([1]; propylene glycol (PG), organic solvent or mixture): 4960 µg/mL
- solubility ([1]; purified water, water): < 10 µg/mL
- Formation of the compound of Formula II [2]: not formed
SMILES: CNc1nc(Nc2ccccc2)nc(OCC(F)(F)C(F)F)n1 [Formula I, N^2-methyl-N^4-phenyl-6-(2,2,3,3-tetrafluoropropoxy)-1,3,5-triazine-2,4-diamine]

From patent US20230026577A1, “Ophthalmic Pharmaceutical Compositions” (Vanda Pharmaceuticals Inc., priority 2019, published 2023)
